Here are results for eight molecules from ChEMBL document CHEMBL2412968, “Tetrazole-based deoxyamodiaquines: synthesis, ADME/PK profiling and pharmacological evaluation as potential antimalarial agents” (Bioorg Med Chem, 2013).

Values after ≈ are worked out from the molar mass of the structure shown.

Data set [1] relates to Plasmodium falciparum. Briefly: Antiplasmodial activity chloroquine-resistant Plasmodium falciparum W2 using YOYO-1 staining after 48 hrs by FACS analysis. Conditions: W2, 48 h. Type of data set: functional, organism-based.
Data set [2] has as its system Plasmodium falciparum. Briefly: Antiplasmodial activity chloroquine-resistant Plasmodium falciparum K1 infected in human A+ erythrocytes assessed as reduction of [3H]hypoxanthine incorporation after 24 hrs by scintillation counting. In kind it is functional, organism-based.
Data set [3] concerns Plasmodium falciparum. Description: Antiplasmodial activity chloroquine-sensitive Plasmodium falciparum 3D7 infected in human A+ erythrocytes assessed as reduction of [3H]hypoxanthine incorporation after 24 hrs by scintillation counting. Type of data set: functional, organism-based.
The nature of data set [4]: physchem. The settings on record: phosphate buffered saline, pH 7.4.
The nature of data set [5]: physchem. The settings on record: 0.01 M HCl, pH 2.
A further data set relates to CHO. Description: Cytotoxicity against CHO cells by MTT assay. In kind it is cell-based. Conditions: Cricetulus griseus. In general terms: Formazan colour is commonly taken as a measure of viable cells.

In general, IC50 refers to the concentration at which inhibition is half-maximal. Regarding `CN(C)C(c1ccccc1Nc1ccnc2cc(Cl)ccc12)c1nnnn1C(C)(C)C` (stereo not given), the values for the IC50 in the data set with Plasmodium falciparum [1], with Plasmodium falciparum [2] and in the data set on Plasmodium falciparum [3] were 3380 nM, 3500 nM and 3500 nM, respectively.

For the molecule `CN(C)C(c1ccc(Nc2ccnc3cc(Cl)ccc23)cc1)c1nnnn1C(C)(C)C` (stereo not given), the IC50 stood at 40 nM in the data set on Plasmodium falciparum [1], 12 nM in the data set on Plasmodium falciparum [2] and 12 nM in the data set with Plasmodium falciparum [3].

By solubility (kinetic) is commonly meant solubility judged after dilution from a stock solution rather than from solid. As to `CN(C)C(c1cccc(Nc2ccnc3cc(Cl)ccc23)c1)c1nnn[nH]1` (stereo not given), the IC50 is 1170 nM with Plasmodium falciparum [1], 2980 nM with Plasmodium falciparum [2] and 487 nM in the data set on Plasmodium falciparum [3]. Also, the figures for the kinetic solubility at 2 h in “physchem [4]” and in the data set “physchem [5]” were 72.6 µM (≈ 27.6 µg/mL) and more than 200 µM, respectively.

Regarding `CCN(CC)C(c1cccc(Nc2ccnc3cc(Cl)ccc23)c1)c1nnn[nH]1` (stereo not given), the IC50 with Plasmodium falciparum [1] was found to be 475 nM; in the data set on Plasmodium falciparum [2] it was 54 nM; in the data set with Plasmodium falciparum [3], 164 nM. The values for the kinetic solubility at 2 h in the data set “physchem [4]” and in the data set “physchem [5]” were 149 µM (≈ 60.8 µg/mL) and more than 200 µM, respectively.

For `Clc1ccc2c(Nc3cccc(C(c4nnn[nH]4)N4CCCC4)c3)ccnc2c1` (stereo not given), the IC50 turned out to be 181 nM with Plasmodium falciparum [1], 49 nM in the data set on Plasmodium falciparum [2] and 1100 nM with Plasmodium falciparum [3]. For the same molecule, the solubility (kinetic) at 2 h in the data set “physchem [4]” was 150 µM (≈ 60.9 µg/mL); in the data set “physchem [5]”, more than 200 µM.

Turning to `Clc1ccc2c(Nc3cccc(C(c4nnn[nH]4)N4CCCCC4)c3)ccnc2c1` (stereo not given), the IC50 in the data set on Plasmodium falciparum [1] turned out to be 487 nM; in the data set with Plasmodium falciparum [2] it was 1260 nM; with Plasmodium falciparum [3], 286 nM. Moreover, the kinetic solubility at 2 h in “physchem [4]” is 122 µM (≈ 51.2 µg/mL); in the data set “physchem [5]”, more than 200 µM.

As for `Clc1ccc2c(Nc3cccc(C(c4nnn[nH]4)N4CCOCC4)c3)ccnc2c1` (stereo not given), the figures for the IC50 in the data set on Plasmodium falciparum [1], with Plasmodium falciparum [2] and with Plasmodium falciparum [3] were 1390 nM, 1970 nM and 2070 nM, respectively.

The molecule `CC[C@H]1CN2CCc3cc(OC)c(OC)cc3[C@@H]2C[C@@H]1C[C@H]1NCCc2cc(OC)c(OC)cc21` [EMETINE] yielded an IC50 with CHO of 129 nM.
